Data from patent US20130052137A1, “PARA AMINO BENZOIC ACID BASED NANOTUBES” (priority 2009, published 2013).

| SMILES | melting point [°C] |
| --- | --- |
| CCCCCCCCCCCCCCCCCC(=O)Nc1ccc(C(=O)Nc2ccccn2)cc1 [Compound 1b, N-(Pyridin-2-yl)-4-stearamidobenzamide] | 140 to 142 |
| CCCCCCCCCCCC(=O)Nc1ccc(C(=O)Nc2ccccn2)cc1 [Compound 1a, N-(Pyridine-2-yl)-4-dodecanamido-benzamide] | 152 to 154 |
